Laboratory results reported in US20100267561A1, “HERBICIDAL PYRIDAZINONE DERIVATIVES” (priority 2007, published 2010).

Columns and labels:
Type in all cases: in vivo
rice (Oryza sativa) = assay: Test B flooded paddy test plant response
Procedure, shortened: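 Step one: raise plants to 2 leaves. Step two: flood pots 3 cm over the soil and apply compound into the water, keeping this depth. Step three: after 13–15 greenhouse days, score visually versus controls, 0–100, where 100 means complete control.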

[1] = tested on: pigweed (Amaranthus retroflexus); assay: Test B pre-/postemergence plant response
Procedure, shortened: (§1)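 Visual scoring from 0 (no effect) to 100 (complete control) against untreated controls was done 13 to 15 days after greenhouse treatment. Chemicals were formulated in a surfactant-containing non-phytotoxic solvent and applied to soil preemergence or to 1- to 4-leaf (2-18 cm) plants postemergence.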

[2] = tested on: common (oilseed) sunflower (Helianthus annuus); assay: Test B pre-/postemergence plant response; conditions: Preemergence
Procedure, shortened: as §1

[3] = tested on: goosegrass (Eleusine indica); assay: Test B pre-/postemergence plant response
Procedure, shortened: as §1

[4] = tested on: woolly cupgrass (Eriochloa villosa); assay: Test B pre-/postemergence plant response
Procedure, shortened: as §1

[5] = tested on: catchweed bedstraw (Galium aparine); assay: Test B pre-/postemergence plant response; conditions: Preemergence; 8 g ai/ha; scale 0 to 100
Procedure, shortened: as §1

[6] = tested on: wheat (Triticum aestivum); assay: Test B pre-/postemergence plant response
Procedure, shortened: as §1

soybean (Glycine max) = assay: Test B pre-/postemergence plant response
Procedure, shortened: as §1

[7] = tested on: cocklebur (Xanthium strumarium); assay: Test B pre-/postemergence plant response; conditions: for Cocklebur plant response rating: 8 g ai/ha
Procedure, shortened: as §1

[8] = tested on: Russian thistle (Salsola iberica); assay: Test B pre-/postemergence plant response; conditions: Preemergence
Procedure, shortened: as §1

[9] = tested on: green foxtail (Setaria viridis); assay: Test B pre-/postemergence plant response
Procedure, shortened: as §1

[10] = tested on: large crabgrass (Digitaria sanguinalis); assay: Test B pre-/postemergence plant response
Procedure, shortened: as §1

[11] = tested on: velvetleaf (Abutilon theophrasti); assay: Test B pre-/postemergence plant response
Procedure, shortened: as §1

[12] = tested on: downy bromegrass (Bromus tectorum); assay: Test B pre-/postemergence plant response; conditions: for Bromegrass, Downy plant response rating: 8 g ai/ha
Procedure, shortened: as §1

[13] = 8 g ai/ha, postemergence, 0-100 scale
[14] = Postemergence, 16 g ai/ha, scale 0 to 100
[15] = Postemergence, 31 g ai/ha, scale 0 to 100
[16] = Postemergence, 62 g ai/ha, scale 0 to 100, 0 no effect, 100 complete control
[17] = Preemergence, 31 g ai/ha, scale 0 to 100 (0 no effect, 100 complete control)
[18] = Preemergence, 62 g ai/ha, scale 0 to 100
[19] = Preemergence, 8 g ai/ha, scale 0 to 100
[20] = Preemergence, 16 g ai/ha, scale 0 to 100
[21] = 31 g ai/ha, scale 0 to 100 (0 no effect, 100 complete control)
[22] = Preemergence, 31 g ai/ha, 0 to 100 scale, 0 no effect, 100 complete control
[23] = Preemergence, 62 g ai/ha, 0 to 100 scale, 0 no effect, 100 complete control
[24] = Preemergence, 16 g ai/ha, scale 0 to 100 (0 no effect, 100 complete control)

## CCOC(=O)Oc1cnn(C)c(=O)c1-n1nc(-c2ccc(Cl)cc2)cc1C [Compound 53]
Rice (Oryza sativa); Flood (flooded paddy test), 62 g ai/ha, scale 0 to 100, 0 no effect, 100 complete control
  Plant response rating, Rice: 0
Rice (Oryza sativa); Flood (flooded paddy test), 125 g ai/ha, scale 0 to 100, 0 no effect, 100 complete control
  Plant response rating, Rice: 0
Rice (Oryza sativa); Flood (flooded paddy test), 250 g ai/ha, scale 0 to 100, 0 no effect, 100 complete control
  Plant response rating, Rice: 30
Rice (Oryza sativa); Flood, 31 g ai/ha, scale 0 to 100
  Plant response rating, Rice: 0
[1]; [13]
  Pigweed plant response rating: 0
[1]; [14]
  Plant response rating, Pigweed: 0
[1]; [15]
  Plant response rating, Pigweed: 0
[1]; [16]
  Plant response rating, Pigweed: 0
[1]; [17]
  Plant response rating, Pigweed: 0
[1]; [18]
  Plant response rating, Pigweed: 0
[1]; [19]
  Pigweed plant response rating: 0
[1]; [20]
  Pigweed plant response rating: 0
[2]; [21]
  Plant response rating, Sunflower: 0
[2]; 62 g ai/ha, scale 0 to 100
  Plant response rating, Sunflower: 0
[2]; 8 g ai/ha, scale 0 to 100
  Sunflower plant response rating: 0
[2]; 16 g ai/ha, scale 0 to 100
  Sunflower plant response rating: 0
[3]; [13]
  Goosegrass plant response rating: 20
[3]; [14]
  Plant response rating, Goosegrass: 60
[3]; [15]
  Plant response rating, Goosegrass: 65
[3]; [16]
  Plant response rating, Goosegrass: 100
[3]; [22]
  Plant response rating, Goosegrass: 0
[3]; [18]
  Plant response rating, Goosegrass: 0
[3]; [19]
  Goosegrass plant response rating: 0
[3]; [20]
  Goosegrass plant response rating: 0
[4]; [13]
  Cupgrass, Woolly plant response rating: 85
[4]; [14]
  Plant response rating, Cupgrass, Woolly: 100
[4]; [15]
  Plant response rating, Cupgrass, Woolly: 100
[4]; [16]
  Plant response rating, Cupgrass, Woolly: 100
[4]; [22]
  Plant response rating, Cupgrass, Woolly: 0
[4]; [18]
  Plant response rating, Cupgrass, Woolly: 0
[4]; [19]
  Cupgrass, Woolly plant response rating: 0
[4]; [20]
  Cupgrass, Woolly plant response rating: 0
[5]
  Galium plant response rating: 0
[6]; [13]
  Wheat plant response rating: 5
[6]; [14]
  Plant response rating, Wheat: 55
[6]; [15]
  Plant response rating, Wheat: 85
[6]; [16]
  Plant response rating, Wheat: 85
[6]; [17]
  Plant response rating, Wheat: 0
[6]; [23]
  Plant response rating, Wheat: 55
[6]; [20]
  Wheat plant response rating: 0
Soybean (Glycine max); [13]
  Soybean plant response rating: 0
Soybean (Glycine max); [14]
  Plant response rating, Soybean: 0
Soybean (Glycine max); [15]
  Plant response rating, Soybean: 0
Soybean (Glycine max); [16]
  Plant response rating, Soybean: 0
Soybean (Glycine max); [17]
  Plant response rating, Soybean: 0
Soybean (Glycine max); [18]
  Plant response rating, Soybean: 65
Soybean (Glycine max); [19]
  Soybean plant response rating: 0
Soybean (Glycine max); [20]
  Soybean plant response rating: 0
[7]; postemergence, 0-100 scale
  Cocklebur plant response rating: 0
[7]; [14]
  Plant response rating, Cocklebur: 0
[7]; [15]
  Plant response rating, Cocklebur: 0
[7]; [16]
  Plant response rating, Cocklebur: 0
[7]; [24]
  Plant response rating, Cocklebur: 0
[7]; [22]
  Plant response rating, Cocklebur: 0
[7]; [18]
  Plant response rating, Cocklebur: 0
[7]; Preemergence, scale 0 to 100
  Cocklebur plant response rating: 0
[8]; [21]
  Plant response rating, Russian Thistle: 0
[8]; 62 g ai/ha, scale 0 to 100
  Plant response rating, Russian Thistle: 0
[8]; 8 g ai/ha, scale 0 to 100
  Russian Thistle plant response rating: 0
[8]; 16 g ai/ha, scale 0 to 100
  Russian Thistle plant response rating: 0
[9]; [13]
  Foxtail, Green plant response rating: 95
[9]; [14]
  Plant response rating, Foxtail, Green: 95
[9]; [15]
  Plant response rating, Foxtail, Green: 100
[9]; [16]
  Plant response rating, Foxtail, Green: 100
[9]; [22]
  Plant response rating, Foxtail, Green: 100
[9]; [18]
  Plant response rating, Foxtail, Green: 100
[9]; [19]
  Foxtail, Green plant response rating: 95
[9]; [20]
  Foxtail, Green plant response rating: 100
[10]; [13]
  Crabgrass, Large plant response rating: 65
[10]; [14]
  Plant response rating, Crabgrass, Large: 85
[10]; [15]
  Plant response rating, Crabgrass, Large: 90
[10]; [16]
  Plant response rating, Crabgrass, Large: 100
[10]; [22]
  Plant response rating, Crabgrass, Large: 0
[10]; [18]
  Plant response rating, Crabgrass, Large: 0
[10]; [19]
  Crabgrass, Large plant response rating: 0
[10]; [20]
  Crabgrass, Large plant response rating: 0
[11]; [13]
  Velvetleaf plant response rating: 0
[11]; [14]
  Plant response rating, Velvetleaf: 0
[11]; [15]
  Plant response rating, Velvetleaf: 0
[11]; [16]
  Plant response rating, Velvetleaf: 0
[11]; [17]
  Plant response rating, Velvetleaf: 0
[11]; [23]
  Plant response rating, Velvetleaf: 0
[11]; [19]
  Velvetleaf plant response rating: 0
[11]; [20]
  Velvetleaf plant response rating: 0
[12]; postemergence, 0-100 scale
  Bromegrass, Downy plant response rating: 10
[12]; [14]
  Plant response rating, Bromegrass, Downy: 45
[12]; [15]
  Plant response rating, Bromegrass, Downy: 60
[12]; [16]
  Plant response rating, Bromegrass, Downy: 90
[12]; [24]
  Plant response rating, Bromegrass, Downy: 50
[12]; [22]
  Plant response rating, Bromegrass, Downy: 70
[12]; [18]
  Plant response rating, Bromegrass, Downy: 90
[12]; Preemergence, scale 0 to 100
  Bromegrass, Downy plant response rating: 10
